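Dose response: 5 concentrations. Exposure: 48 h. Format: 96-well plates. Endpoint: linear interpolation; highest concentration if not reached. GI50 marks 50% less growth. TGI: total growth inhibition.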 Some results are limits rather than exact numbers.

What all share (assay): NCI anticancer screen, dose series, 48 h
Test [1] has as its system A498 renal.
Test [2] deals with IGROV1 ovarian.
In test [3] the test system is LOX IMVI melanoma.
The subject of test [4] is MDA-MB-435.
The subject of test [5] is NCI-H226 lung.
In test [6] the test system is NCI-H23 lung.
The test system of test [7] is OVCAR-3 ovarian.
The test system of test [8] is RPMI-8226 leukemia.
Test [9] concerns SR leukemia.
Test [10] relates to SW-620 colon.

As to `COC(=O)c1cc(C)[nH]c2c(C)cc3nc4ccccc4c3c12`, the GI50 in [1] is 6.07 µM; in test [2] it was 6.01 µM; in test [3] it was 5.38 µM; in test [4], 9.01 µM; in [5], 14 µM; in [6] it was 7.54 µM. Also, the GI50 in test [7] was 10.3 µM; in test [8] it was 5.75 µM; in test [9], 6.13 µM; in test [10], 7.91 µM. The TGI in test [1] came out at 21.2 µM; in test [2], 23.9 µM; in test [3], 32.2 µM; in test [4] it was 22.2 µM; in test [5], 28.9 µM; in [6], 26.4 µM. Besides, the TGI in test [7] is 22.1 µM; in test [8], 46.9 µM; in test [9], 58.2 µM; in [10], 27 µM.
Regarding `COc1cc2c(=O)n(CC3CCCCC3)c3c4cc[nH]c4ncc3c2cc1OC`, the GI50 is 0.086 µM in [1]; 0.891 µM in [2]; 2.3 µM in test [3]; 4.15 µM in [4]; 0.0556 µM in test [5]; 6.66 µM in [6]. Moreover, the GI50 in test [7] is 6.66 µM; in test [8], 3.1 µM; in test [9], 0.313 µM; in [10], 2 µM. For the same molecule, the TGI in [1] is 3.06 µM; in test [2] it was 13.8 µM; in [3], 14.3 µM; in test [4], over 50 µM; in [5] it was 17.2 µM; in test [6] it was over 50 µM. The TGI was 18 µM in test [7], over 50 µM in test [8], over 50 µM in [9] and 14.6 µM in test [10].
On to `CCCCCCCCc1cc(O)ccc1O`, for which the GI50 was 15.3 µM in [1]; 17.7 µM in test [2]; 12.8 µM in test [3]; 19.5 µM in test [4]; 17.3 µM in test [5]; 17.3 µM in test [6]. Further, the GI50 in [7] is 15.4 µM; in [8], 10.5 µM; in test [9], 15 µM; in test [10], 21.6 µM. Further, the TGI in [1] was 36 µM; in test [2] it was 43.8 µM; in test [3] it was 25.8 µM; in test [4], 49.7 µM; in test [5], 41.7 µM; in test [6], 42 µM. Moreover, the TGI in test [7] came to 30 µM; in test [8], 48.5 µM; in test [9], 50.8 µM; in test [10], 46.1 µM.
As to `COc1ccc2c(c1)C=CC1C2CC[C@]2(C)C(NC(=O)/C=C/c3ccc(O)c(O)c3)CCC12` (some centres not stated), the GI50 in test [1] is 19.9 µM; in [2] it was 5.93 µM; in test [3], 6.45 µM; in test [4], 14.7 µM; in test [5] it was 15.3 µM; in test [6] it was 16.3 µM. Besides, the GI50 in [7] is 7.19 µM; in [8], 7.98 µM; in test [9], 4.06 µM; in test [10], 9.93 µM. The TGI in test [1] came to 53.6 µM; in test [2] it was 24.7 µM; in test [3] it was 20.2 µM; in test [4], 36.6 µM; in test [5], 41.3 µM; in test [6], 38.3 µM. For the same molecule, the TGI turned out to be 27.8 µM in [7], 39.1 µM in test [8], 17.1 µM in test [9] and 55.2 µM in [10].
As to `COC(=O)[C@@H](C)C[C@H](Cc1ccccc1)NC(=O)c1csc([C@@H](C[C@H](C(C)C)N(C)C(=O)[C@@H](NC(=O)[C@H]2CCCCN2C)C(C(F)(F)F)C(F)(F)F)OC(C)=O)n1`, the GI50 is 0.0829 µM in test [1]; 0.0666 µM in [2]; 0.053 µM in test [3]; 0.00437 µM in test [4]; 3.94 µM in [5]; 0.0624 µM in test [6]. For the same molecule, the GI50 in test [7] is 0.021 µM; in test [8], 0.059 µM; in test [9], 0.00743 µM; in test [10] it was 0.0673 µM. The TGI is over 16.7 µM in test [1]; over 16.7 µM in [2]; over 16.7 µM in test [3]; 0.0219 µM in test [4]; over 16.7 µM in test [5]; over 16.7 µM in [6]. Besides, the TGI in [7] was 0.253 µM; in [8], 3.22 µM; in [9], over 16.7 µM; in [10] it was over 16.7 µM.
Take `O=S(=O)(Nc1ccc(Cl)c(Cl)c1)c1ccc(-c2cnc(C3CC3)o2)cc1`: the GI50 in test [1] is 0.273 µM; in test [2], 0.587 µM; in test [3], 0.586 µM; in test [4], 0.139 µM; in test [5] it was 1.82 µM; in test [6], 1.33 µM. Also, the GI50 in test [7] was 0.277 µM; in [8], 0.612 µM; in test [9] it was 0.122 µM; in test [10] it was 0.336 µM. The TGI in [1] is 2.9 µM; in test [2] it was 15.8 µM; in test [3], 19.3 µM; in [4] it was 0.674 µM; in test [5], 19.5 µM; in test [6], 19.6 µM. In addition, the TGI was 0.967 µM in [7], 43.5 µM in [8], 62.6 µM in [9] and 15.3 µM in test [10].
On to `c1ccc(-c2cc3n4c(-c5ccccc5)nn(-c5ccccc5)c4cnc-3n2)cc1`, for which the GI50 in [1] is 12.1 µM; in [2] it was over 50 µM; in test [3], over 50 µM; in test [4], over 50 µM; in test [5] it was over 50 µM; in [6], over 50 µM. For the same molecule, the GI50 in test [7], in test [8], in [9] and in test [10] was over 50 µM each time. The TGI in [1], in test [2], in [3], in test [4], in [5] and in test [6] was over 50 µM in each case. Besides, the TGI in test [7], in [8], in test [9] and in test [10] was over 50 µM throughout.
As for `CCOC(=O)N(O)c1ccc(/C=C/c2ccccc2)cc1`, the GI50 in test [1] was 0.146 µM; in test [2], 0.319 µM; in test [3], 7.22 µM; in [4], 11 µM; in test [5] it was 0.128 µM; in test [6], 5.77 µM. In addition, the GI50 is 3.16 µM in test [7], 5.08 µM in [8], 4.1 µM in [9] and 5.3 µM in [10]. Further, the TGI was 0.291 µM in test [1]; 3.21 µM in test [2]; 20.6 µM in test [3]; 48.6 µM in test [4]; 0.446 µM in test [5]; 37.1 µM in [6]. Besides, the TGI in test [7] is 15.7 µM; in test [8], 38.8 µM; in test [9], 28.2 µM; in [10], 25.1 µM.
With `C[C@H]1CCC2C(OC(=O)[C@@H]2CN(C)C)[C@]2(C)C(=O)C=CC12O` (some centres not stated), the TGI was 31.2 µM in [1]; 42.5 µM in test [2]; 17.8 µM in test [3]; 22.4 µM in test [4]; over 38.1 µM in test [5]; 13.6 µM in test [6]. For the same molecule, the TGI in test [7] turned out to be 15 µM; in test [8], 16.2 µM; in [9], 11.2 µM; in [10] it was 10.2 µM.
As to `O=C(N/N=C/c1ccc(N(CCCl)CCCl)cc1)c1ccc(C(=O)N/N=C/c2ccc(N(CCCl)CCCl)cc2)cc1`, the GI50 in test [1] is 15.1 µM; in test [2], 20.7 µM; in [3], 1.4 µM; in test [4], 29.8 µM; in [5] it was 57.4 µM; in test [7], 19 µM. The GI50 in test [8] was 1.33 µM; in [10], 19.5 µM. In addition, the TGI in test [1], in test [2], in test [3], in test [4], in test [5] and in test [7] was over 100 µM in each case. The TGI in test [8] was 15.1 µM; in test [9], over 100 µM; in [10], over 100 µM.
On to `CC(=O)OC1=C(CC(C)(C)C)C(=O)c2ccccc2C1=O`, for which the TGI was 48.3 µM in test [1]; over 100 µM in [2]; over 100 µM in [3]; 60.8 µM in [4]; over 100 µM in test [5]; 38.8 µM in test [6]. For the same molecule, the TGI was 39.1 µM in [8], 50.7 µM in test [9] and over 100 µM in [10].
For the molecule `N=C1C=C(N)C(=O)c2ccccc21`, the GI50 in [1] is 1.57 µM; in [2] it was 0.203 µM; in test [3], 0.17 µM; in test [4], 0.163 µM; in test [5] it was 0.19 µM; in test [6], 0.219 µM. Moreover, the GI50 in test [7] is 0.139 µM; in test [8], 0.241 µM; in test [9], 0.256 µM; in [10] it was 0.22 µM. Besides, the TGI was determined as 2.95 µM in [1]; 0.42 µM in test [2]; 0.421 µM in [3]; 0.31 µM in test [4]; 0.394 µM in test [5]; 0.61 µM in [6]. For the same molecule, the TGI in [7] was 0.281 µM; in test [8], 0.669 µM; in [9], 0.667 µM; in [10], 0.509 µM.
For the molecule `C[C@H]1CC[C@@H]2[C@@H](C)[C@H]3[C@H](C[C@H]4[C@@H]5CC=C6C[C@@H](O)CC[C@]6(C)[C@H]5CC[C@]34C)N2C1`, the TGI in test [1] was 41.7 µM; in [2], over 100 µM; in test [3], over 100 µM; in test [4] it was over 100 µM; in test [5], over 100 µM; in test [6] it was over 100 µM. Also, the TGI in test [7] was over 100 µM; in test [8] it was over 100 µM; in test [9], 56.1 µM; in test [10], over 100 µM.
In the case of `CC(C)OP(=O)(OC(C)C)/C(C#N)=C/c1c[nH]c2ccccc12`, the TGI in test [1], in [2], in test [3], in test [4], in test [5] and in test [6] was over 100 µM each time. For the same molecule, the TGI in [7], in test [8], in test [9] and in [10] was over 100 µM each time.
For the molecule `C1CC[N-]CC1.CC(=N\O)/C(C)=N/O.CC(=N\O)/C(C)=N/O.C[CH-]C(C)O.[Co+2]`, the GI50 in test [1] is 23.9 µM; in [2] it was 31.7 µM; in test [3], 17.8 µM; in test [4] it was 23.1 µM; in test [5], 26.2 µM; in test [7] it was 17.4 µM. Further, the GI50 in test [8] was 18.8 µM; in test [9], 18.2 µM; in test [10], 23.5 µM. Besides, the TGI is 73.9 µM in test [1]; over 100 µM in test [2]; 33.7 µM in [3]; 51.7 µM in test [4]; 69 µM in test [5]; 51.7 µM in test [7]. Also, the figures for the TGI in [8], in test [9] and in [10] were 43.4 µM, 45 µM and 66.8 µM, respectively.
With `COc1ccc(/C=C/C(=O)c2ccc(Nc3nc(Nc4ccc(F)cc4)nc(Nc4ccc(F)cc4)n3)cc2)cc1`, the GI50 in test [1] was 11.8 µM; in [3], 21.7 µM; in [4], 5.8 µM; in [5] it was 19.8 µM; in [6], 14.4 µM; in test [7], 26.7 µM. Also, the values for the GI50 in [8], in test [9] and in test [10] were 6.66 µM, 4.66 µM and 19 µM, respectively. The TGI is 28.2 µM in [1]; 67.7 µM in test [3]; 31.6 µM in [4]; 65.7 µM in test [5]; 32.5 µM in [6]; over 100 µM in test [7]. For the same molecule, the TGI in test [8] was over 100 µM; in test [9] it was 51.6 µM; in test [10], 82.1 µM.

Source of the values: PubChem BioAssay (NCI).
